Measured values as given in doi:10.1101/2025.05.27.656499v1 (biorxiv, 2025).

target: Biotinylated human CD28 protein (His-tagged, AviTag) (Homo sapiens, UniProt P10747); test: SPR; type: binding
Sequence (P10747 19-152 limits assumed): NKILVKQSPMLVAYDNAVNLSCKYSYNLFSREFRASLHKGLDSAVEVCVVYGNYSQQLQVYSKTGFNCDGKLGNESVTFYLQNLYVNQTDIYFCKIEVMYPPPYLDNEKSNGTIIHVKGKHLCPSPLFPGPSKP

With Cc1nc(C#Cc2ccnc(Cl)c2)c(C)n1-c1ccc(OC(F)(F)F)cc1 [2B10, CTEP] the Kd was 181 ± 53 µM.

target: human CD28 Protein, His Tag (Homo sapiens, UniProt P10747); test: MST / TRIC; type: binding
Sequence (P10747 19-152): as the sequence (P10747 19-152 limits assumed) above

Point of comparison: CC(C)=CCC/C(C)=C/CC/C(C)=C/C=C/C(C)=C/C(=O)O [2L10, Peretinoin], Kd 283 ± 398 µM. Against it:
- O=C(Cc1ccccc1)c1cc(O)c(O)c([N+](=O)[O-])c1 [1F19, Nebicapone] — within error, 45.1 ± 68.9 µM
- CCN(CC)C(=O)/C(C#N)=C/c1cc(O)c(O)c([N+](=O)[O-])c1 [1I03, Entacapone] — within error, 45.6 ± 52.1 µM
- CN1c2ccc([N+](=O)[O-])cc2N=C(c2ccc(C(=O)O)cc2)c2cc3c(cc21)C(C)(C)CCC3(C)C [1K19, HX531] — within error, 245 ± 151 µM
- Nc1c(C(=O)O)c2nc3c(C(=O)O)cccc3oc-2cc1=O [1O03, Cinnabarinic acid] — within error, 14.6 ± 8.23 µM
- CNc1nc2ccccc2n2c(-c3ccc(O)c(O)c3)cnc12 [2B06, EAPB 02303] — within error, 8.37 ± 4.42 µM
- Cc1nc(C#Cc2ccnc(Cl)c2)c(C)n1-c1ccc(OC(F)(F)F)cc1 [2B10, CTEP] — within error, 236 ± 110 µM
